For the assay, the system named is MCAo in rats. In words: MCAo experimental model, infarct volume (TTC staining). The settings on record: positive control, 45 mg/kg. Type of assay: in vivo, Sprague-Dawley rat. On the procedure: To determine the preventing effect of the extract of crude drug complex of the present invention on neuronal injury, following intraluminal suture method using animal model was performed by modifying well-mown method disclosed in the literature (Zea L. E. Stroke, 20, pp 84-91, 1989).
8-weeks old white male Sprague-Dawley rat weighing about 280 g was procured from Samtaco Co. Ltd. (Seoul), […] for 1 week providing with free access to water and feed and acclimated to experimental environment.
The rat was anesthetized with 5% isoflurane gas (mixed gas with the gas mixture consisting of 70% N2O and 30% O2 gas and 5% isoflurane) and maintained with 1% isoflurane gas during experiment.
The skin at the center of rat neck was excised and right CCA (common carotid artery) and ECA (external carotid artery) were isolated from neighboring tissue and nerves with care. […]
The body temperature was monitored and maintained at 37±0.5° C.
The caudal was excised and terminal tissue was discarded to obtain 6 numbers of brain slices with the thickness of 2 mm using by brain matrix. […] The volume of cerebral infarction region was calculated by the OPTIMAS program (Media Cybernetics Co., 6.51 version). To determine the exact volume of cerebral infarction region of right hemisphere excluding edema volume (A), the real volume of cerebral infarction (B) was calculated by following Empirical Formula 1 and 2. […]

Consider `CN(C)c1ccc(O)c2c1C[C@H]1C[C@H]3[C@H](N(C)C)C(O)=C(C(N)=O)C(=O)[C@@]3(O)C(O)=C1C2=O` [minocycline], for which the infarct volume was 20.5±2.85%.

For the origin of these results see patent US8241679B2, “Composition comprising the extract of crude drug complex having neuroprotective activity for preventing and treating stroke and neurodegenerative diseases” (Neumed Inc., priority 2007, dated 2012).
